Measurements as given in patent publication US12318399B2 (priority 2022, dated 2025).

Tests used:
[1] = system: endometrial cancer organoids; experiment: Patient-derived endometrial cancer organoid cell viability (CellTiter-Glo); type: cell-based, human; details: for Flavonoids screening on endometrial cancer cell organoids, Average: viability normalized to vehicle = 100; for cell viability: FIG. 17B; for efficacy in combination with FSHE: combined with IC50 FSHE, FIG. 18; for Endometrial Cancer Average: vehicle = 100; for cell viability compared to the IC50 value: 75 μM in combination with BSHE at an IC50, FIG. 17A
Description: (§1) Development of patient derived organoids: The patient derived organoids were created as follows: the patient's tissue sample was collected after surgery and bathed in Hank's Balanced Salt Solution (HBSS) (Hyclone, SH30031.02) with 1% Pencillin/Streptomycin (P/S) (Life Technologies, 15070-063) on ice. Then the sample was washed three times with Dulbecco's phosphate-buffered saline (DPBS) and 1% P/S on a shaker (70 rpm) for 15 minutes each. The tissue was then transferred into a presterilized cell-culture hood to mince it finely with a sterile blade. All minced parts were then digested in an enzyme named Accumax (Innovative Cell Technologies Inc., AM105-500) for 2.5 hours at room temperature. After 2.5-hour incubation, the whole digested tissue mince was transferred in another enzyme, TrypLE express, (Gibco, 12604-021) for another 45 minutes in a 37° C. water bath. During this time the solution was continuously agitated in every 5 minutes interval. After 45 minutes of incubation, the solutions were passed through 70 μm filter on a 50 mL falcon tube. The filter was removed, and the flowthrough with the cells was collected in 5% FBS AD+++ medium (comprising 1% TS, 2% B27, 1% N2, 25% WRN, hegf 50 ng/ml, hfgf 10-100 ng/ml, Nicotinamide 1 mM, N-acetyl cysteine 1.25 mM, Primocin 0.2%, Estrogen 2 nm, A8301 0.5 μM, and Y27632). This cell suspension was centrifuged at 1000 rpm for 5 minutes at room temperature to get the cell pellet for counting. Upon checking under hemocytometer cell number was calculated and processed for organoid culture. After checking under a microscope if we found RBC contamination in the final cell suspension, then we used Red Blood Cell Lysis Buffer (Roche Diagnostics, 11814389001) to get rid of the excess RBC. Human patient cells from endometrial cancer were grown and maintained in a humidified chamber at 37° C. with 5% CO2.
(§2) To culture patient-derived organoids, 2-3×10^3 cells were plated in a prewarmed (37° C.) 96-well plate in […] of Matrigel (5% FBS AD+++ medium) per well. Individual patient cell organoid was cultured separately in different plates. Individual patient cells were handled separately to reduce the chance of cross-contamination. After mixing cells with Matrigel, […] droplets were placed in wells and put in a 37° C. incubator with 5% CO2 for 30 minutes. Upon solidification of the Matrigel droplet with cells inside, the plate was placed inside a sterile hood and immersed the Matrigel droplet in 200 μL of organoid growth media. Cells were allowed to grow into mature organoids for 14 days. […] All treatments were done in triplicate, including vehicle-only controls (Dimethyl sulfoxide in culture medium at the highest concentration used for drug treatments).
(§3) Note: IC50 is the 50% inhibitory concentration which is conventionally used to determine drug potency with cell-based cytotoxicity tests. Similarly, all of the antioxidants were tested under the same protocol.
(§4) To assess the cell viability in organoids after treatments, CellTiter-Glo® Luminescent Assay (Promega #G7572) was used. In brief, on day 14 of organoid culture, the matrigel droplet in each well with organoid inside was immersed in 100 μL of fresh growth media and 100 μL of CellTiter-Glo® reagent following the manufacturer's guideline. Blank wells containing only media and CellTiter-Glo® reagent (no cells) were also included in each plate. Then the plates were put on a shaker at 110 RPM at room temperature for […] minutes to induce cell lysis, followed by 25 minutes at room temperature to stabilize the luminescent signal. Each step after adding the CellTiter-Glo® reagent was performed in the dark. Luminescence was measured on a FLUOstar OPTIMA plate reader (BMG Lab technologies, Offenburg, Germany). Analysis was performed by normalizing treatment values to the vehicle control and plotting them as a percentage of the vehicle control.

[2] = oral formulations; cited from earlier work
[3] = system: ovarian cancer organoids; experiment: Patient-derived ovarian cancer organoid cell viability; type: cell-based, human; details: vehicle = 100
Description: as §1
For the Ascites samples, we centrifuged the ascites fluid at 1000 rpm for 10 minutes at room temperature to get the cell suspension. The cell suspension was then treated with Red Blood Cell Lysis Buffer (Roche Diagnostics, 11814389001) to remove the RBC from the final cell suspension. Once samples were created, they were ready for testing, which included treating the organoids with cannabis extract. Additional cells were cultured in the same manner as above.
as §2, §3
To assess the cell viability in organoids after treatments, CellTiter-Glo® Luminescent Assay (Promega #G7572) was used. In brief, on day 14 of organoid culture, the matrigel droplet in each well with organoid inside was immersed in 100 μL of fresh growth media and 100 μL of CellTiter-Glo® reagent following the manufacturer's guideline. Blank wells containing only media and CellTiter-Glo® reagent (no cells) were also included in each plate. […]

[4] = system: endometriosis organoids; experiment: Endometriosis organoid cell viability; type: cell-based, human; set-up: key: % of vehicle control; details: vehicle = 100
Description: as §2, §3
as §4, with “control. Drug IC50 values were determined by inhibitor vs normalized response-variable slope using least squares regression in Graphpad Prism 9.” for “control.”

O=c1c(O)c(-c2ccccc2)oc2ccccc12 [3-hydroxyflavone]
Flavonoids screening on endometrial cancer cell organoids, Average ([1]; 10 μM, monotherapy): 61.62
Flavonoids screening on endometrial cancer cell organoids, Average ([1]; 20 μM, monotherapy): 48.26
Flavonoids screening on endometrial cancer cell organoids, Average ([1]; 30 μM, monotherapy): 51.28
Flavonoids screening on endometrial cancer cell organoids, Average ([1]; 40 μM, monotherapy): 41.00
Flavonoids screening on endometrial cancer cell organoids, Average ([1]; 50 μM, monotherapy): 37.88
Flavonoids screening on endometrial cancer cell organoids, Average ([1]; 60 μM, monotherapy): 35.89
Flavonoids screening on endometrial cancer cell organoids, Average ([1]; 80 μM, monotherapy): 34.31
Flavonoids screening on endometrial cancer cell organoids, Average ([1]; 100 μM, monotherapy): 34.65

O=c1c(O)c(-c2ccccc2)oc2cc(O)cc(O)c12 [Galangin]
Flavonoids screening on endometrial cancer cell organoids, Average ([1]; 10 μM, monotherapy): 98.74
Flavonoids screening on endometrial cancer cell organoids, Average ([1]; 20 μM, monotherapy): 98.58
Flavonoids screening on endometrial cancer cell organoids, Average ([1]; 30 μM, monotherapy): 96.96
Flavonoids screening on endometrial cancer cell organoids, Average ([1]; 40 μM, monotherapy): 69.20
Flavonoids screening on endometrial cancer cell organoids, Average ([1]; 50 μM, monotherapy): 49.62
Flavonoids screening on endometrial cancer cell organoids, Average ([1]; 60 μM, monotherapy): 33.55
Flavonoids screening on endometrial cancer cell organoids, Average ([1]; 80 μM, monotherapy): 25.66
Flavonoids screening on endometrial cancer cell organoids, Average ([1]; 100 μM, monotherapy): 29.73

O=c1cc(-c2ccc(O)c(O)c2)oc2cc(O)cc(O)c12 [Luteolin]
Flavonoids screening on endometrial cancer cell organoids, Average ([1]; 10 μM, monotherapy): 90.54
Flavonoids screening on endometrial cancer cell organoids, Average ([1]; 20 μM, monotherapy): 56.75
Flavonoids screening on endometrial cancer cell organoids, Average ([1]; 30 μM, monotherapy): 33.96
Flavonoids screening on endometrial cancer cell organoids, Average ([1]; 40 μM, monotherapy): 1.39
Flavonoids screening on endometrial cancer cell organoids, Average ([1]; 50 μM, monotherapy): 0.00
Flavonoids screening on endometrial cancer cell organoids, Average ([1]; 60 μM, monotherapy): 0.00
Flavonoids screening on endometrial cancer cell organoids, Average ([1]; 80 μM, monotherapy): 0.00
Flavonoids screening on endometrial cancer cell organoids, Average ([1]; 100 μM, monotherapy): 0.00

O=c1c(O)c(-c2ccc(O)c(O)c2)oc2cc(O)cc(O)c12 [Quercetin]
Flavonoids screening on endometrial cancer cell organoids, Average ([1]; 10 μM, monotherapy): 95.16
Flavonoids screening on endometrial cancer cell organoids, Average ([1]; 20 μM, monotherapy): 89.43
Flavonoids screening on endometrial cancer cell organoids, Average ([1]; 30 μM, monotherapy): 85.33
Flavonoids screening on endometrial cancer cell organoids, Average ([1]; 40 μM, monotherapy): 58.16
Flavonoids screening on endometrial cancer cell organoids, Average ([1]; 50 μM, monotherapy): 34.67
Flavonoids screening on endometrial cancer cell organoids, Average ([1]; 60 μM, monotherapy): 25.59
Flavonoids screening on endometrial cancer cell organoids, Average ([1]; 80 μM, monotherapy): 7.88
Flavonoids screening on endometrial cancer cell organoids, Average ([1]; 100 μM, monotherapy): 0.00

CCCCCc1cc(O)c2c(c1)OC(C)(C)[C@@H]1CCC(C)=C[C@@H]21 [THC, Δ-9-tetrahydrocannabinol]
onset to reach peak concentration [2]: ~120 min

N.N.O=C([O-])C1(C(=O)[O-])CCC1.[Pt+2] [carboplatin, reference compound]
relative improvement on increasing the chemotherapeutic drug by 5× ([1]; carboplatin alone): about 18%
viability ([1]; carboplatin alone, 50 μg/mL (lowest dose)): about 50%
viability ([1]; carboplatin alone, highest dose): about 32%

O=c1cc(-c2ccccc2)oc2cc(O)cc(O)c12 [chrysin]
cell viability ([1]; 10 μM combined with the IC50 of the BSHE): 3.04%
growth ([1]; 10 μM, monotherapy, FIG. 16): 178.99%
change in viability, combination vs monotherapy ([1]; 10 μM, with IC50 of BSHE): ~175%
cell viability ([1]; 12.5 μM combined with the IC50 of the BSHE): ~0%
growth ([1]; 25 μM, monotherapy, FIG. 16): 188.45%
growth ([1]; 50 μM, monotherapy, FIG. 16): 125.21%
viability ([1]; 100 μM, monotherapy, FIG. 16): 56.74
efficacy in combination with FSHE [1]: 2nd most effective combination

O=c1c(O)c(-c2cc(O)c(O)c(O)c2)oc2cc(O)cc(O)c12 [myricetin]
Ovarian Cancer Average ([3]; 25 μM): 88.60
Ovarian Cancer Average ([3]; 50 μM): 84.68
Ovarian Cancer Average ([3]; 75 μM): 78.36
Ovarian Cancer Average ([3]; 100 μM): 38.95
Ovarian Cancer Average ([3]; 125 μM): 13.49
Ovarian Cancer Average ([3]; 150 μM): 2.97
Ovarian Cancer Average ([3]; 175 μM): 0.00
Ovarian Cancer Average ([3]; 200 μM): 0.00
Endometriosis Average ([4]; 25 μM): 92.10
Endometriosis Average ([4]; 50 μM): 91.37
Endometriosis Average ([4]; 75 μM): 73.66
Endometriosis Average ([4]; 100 μM): 18.33
Endometriosis Average ([4]; 125 μM): 2.85
Endometriosis Average ([4]; 150 μM): 0.00
Endometriosis Average ([4]; 175 μM): 0.00
Endometriosis Average ([4]; 200 μM): 0.00
reduction from its monotherapy ([1]; 10 μM, with IC50 of BSHE): ~86%
Endometrial Cancer Average ([1]; Table 4, 10 μM): 85.01
Endometrial Cancer Average ([1]; Table 4, 25 μM): 54.50
Endometrial Cancer Average ([1]; Table 4, 50 μM): 15.11
Endometrial Cancer Average ([1]; Table 4, 75 μM): 4.98
Endometrial Cancer Average ([1]; Table 4, 100 μM): 0.00
Endometrial Cancer Average ([1]; Table 4, 125 μM): 0.00
Endometrial Cancer Average ([1]; Table 4, 150 μM): 0.00
Endometrial Cancer Average ([1]; Table 4, 175 μM): 0.00
Endometrial Cancer Average ([1]; Table 4, 200 μM): 0.00
cell viability as a monotherapy ([1]; monotherapy, FIG. 16): significantly reduced cell viability

CC(=O)O[C@H]1C(=O)[C@@]2(C)[C@H]([C@H](OC(=O)c3ccccc3)[C@]3(O)C[C@H](OC(=O)[C@H](O)[C@@H](NC(=O)c4ccccc4)c4ccccc4)C(C)=C1C3(C)C)[C@]1(OC(C)=O)CO[C@@H]1C[C@@H]2O [paclitaxel, reference compound]
relative reduction in viability on increasing the dose by 5× ([1]; paclitaxel alone, 4 nm/ml to 20 nm/ml): about 12%

O=C1c2c(O)cc(O)cc2O[C@H](c2ccc(O)c(O)c2)[C@H]1O [taxifolin]
effect on cells as monotherapy ([1]; 50 μM, monotherapy, FIG. 16): inducing cell proliferation
cell viability compared to the IC50 value [1]: significant reduction cell viability

Cc1c(C)c2c(c(C)c1O)CC[C@@](C)(CCC[C@H](C)CCC[C@H](C)CCCC(C)C)O2 [tocopherol, reference compound]
effect on cells as monotherapy ([1]; 50 μM, monotherapy, FIG. 16): inducing cell proliferation
cell viability compared to the IC50 value [1]: significant reduction cell viability
efficacy in combination with FSHE [1]: made the IC50 FSHE ineffective
impact on cell viability alone in the carrier ([1]; monotherapy in DMSO): virtually no impact on cell viability

C=C1CC/C=C(\C)CC[C@@H]2[C@@H]1CC2(C)C [β-caryophyllene, reference compound]
effect on cells as monotherapy ([1]; 50 μM, monotherapy, FIG. 16): inducing cell proliferation
cell viability compared to the IC50 value [1]: significant reduction cell viability
